Data set [1] concerns the target T1, histamine H3 receptor (Homo sapiens, UniProt Q9Y5N1).
T1 construct: host or cells: cultured H3 cells (membranes)
Nature of the data set: histamine H3 functional antagonist assay using membrane prepared from cultured H3 cells. The data set is classed as biochemical. As to the method: 1-Isopropyl-4-{[4-(tetrahydro-2H-pyran-4-yloxy)phenyl]carbonyl}hexahydro-1H-1,4-diazepine hydrochloride was tested using substantially the histamine H3 functional antagonist assay disclosed on pages 47-49, and in particular page 48 line 26 to page 49 line 7, of WO 2009/030716 A1 (Glaxo Group Limited). The result is expressed as a functional pKi (fpKi) value. A functional pKi is the negative logarithm of the antagonist equilibrium dissociation constant as determined in the H3 functional antagonist assay using membrane prepared from cultured H3 cells. The result given is an average of a number of experiments.

Data set [2] can be described thus: Gravimetric vapour sorption (GVS), water sorption/desorption isotherm at varying relative humidity. It is filed as physicochemical. As to conditions: for water reversibly adsorbed and/or absorbed, and/or desorbed (GVS): relative to minimum mass; for weight gain relative to the minimum mass at 0% RH (GVS) / weight gain cf. minimum mass (GVS): 25° C. The procedure: Gravimetric vapour sorption (GVS) data were acquired on a Hiden IGA-Sorp analyser model (available from Hiden Isochema Ltd., 231 Europa Boulevard, Gemini Business Park, Warrington WA5 7TN, United Kingdom), generating a full sorption/desorption isotherm using water vapour perfusion at 25° C. under nitrogen gas and at varying relative humidities (RH).
23 milligrams of a sample of the crystalline Form 1 of 1-isopropyl-4-{[4-(tetrahydro-2H-pyran-4-yloxy)phenyl]carbonyl}hexahydro-1H-1,4-diazepine mono-maleate prepared in Example 4 were placed into a clean and dry tared sample mesh pan and weighed using the IGA-Sorp internal balance.
(i) starting from about 30% RH and increasing to about 90% RH in increments of about 10% RH (results shown as the solid line in the middle and on the right of FIG. 5), and then (ii) decreasing from about 90% RH to 0% RH in increments of about 10% RH (results shown as the dotted line in FIG. 5), and then (iii) increasing from 0% RH to about 30% RH, in increments of about 5% RH up to ca. 10% RH, and then in increments of about 10% RH from ca. 10% to ca. 30% RH (results shown as the solid line on the left of FIG. 5).
The weight of the sample was recorded after each ca. 10% RH increment. The point of equilibrium, after each ca. 10% RH increment, was automatically determined using a 97% asymptote setting.
Gravimetric Vapour Sorption (GVS) data, on the solid 1-isopropyl-4-{[4-(tetrahydro-2H-pyran-4-yloxy)phenyl]carbonyl}hexahydro-1H-1,4-diazepine hydrochloride from Example 2, Part C (the “kinetic” solid hydrochloride salt produced by fast crystallisation, and before purification by recrystallisation), were acquired on a DVS-1 SMS model (available from Surface Measurement System (SMS)), generating a full sorption/desorption isotherm using water vapour perfusion at 25° C. under nitrogen gas and at varying relative humidities (RH).
22 milligrams of the specified solid hydrochloride salt sample were placed into a clean and dry tared sample glass pan and weighed using the DVS-1 internal balance.
(i) starting from about 30% RH and increasing to about 90% RH in increments of about 10% RH (results shown as the line in the middle and on the right of FIG. 6, going from ca. 7-8% weight gain cf. minimum mass at ca. 30% RH, to ca. 14-15% weight gain cf. minimum mass at ca. 90% RH), and then (ii) decreasing from about 90% RH to 0% RH in increments of about 10% RH (results shown as the line in FIG. 6, starting from ca. 14-15% weight gain cf. minimum mass at ca. 90% RH, going towards the left almost horizontally to ca. 14% weight gain at ca. 30% RH, and then going rapidly down to 0% weight gain at 0% RH), and then (iii) increasing from 0% RH to about 30% RH in increments of about 10% RH (results shown as the line on the bottom left of FIG. 6, going from 0% weight gain at 0% RH to about 2% weight gain at ca. 30% RH).
The weight of the sample was recorded after each ca. 10% RH increment. The point of equilibrium was automatically determined using a 0.02 dm/dt setting.

Data set [3] is described as follows: Karl Fischer analysis of water content. It is filed as physicochemical. As to conditions: normal United Kingdom room humidity. As to the method:
A Karl Fischer analysis of water content was carried out on the crystalline Form 1 mono-maleate salt prepared in Example 4 (at normal United Kingdom room humidity). This Karl Fischer analysis reported a water content of less than 0.1% w/w.

The subject of the next data set is rodent. The conditions noted are these: literature reports; cited from earlier work.
Data set [4] in a line: Hygroscopicity and stability of the solid diazepine intermediate salts in air. The data set is classed as physicochemical. As to conditions: for hygroscopicity of the solid: air at normal humidities, normal relative humidity (e.g. ca. 30%) at 25° C. From the text:
(i) The use of 1-isopropyl-hexahydro-1H-1,4-diazepine bis-trifluoroacetate allows the avoidance of the use of toxic dioxane in the preparation of 1-(isopropyl)-hexahydro-1H-1,4-diazepine dihydrochloride (from the BOC-protected precursor e.g. Intermediate 1), which preparation typically (see e.g. Intermediate 2 herein) uses HCl (e.g. 4M HCl) in dry dioxane (to avoid the water present in aqueous hydrochloric acid) in order to obtain solid 1-(isopropyl)hexahydro-1H-1,4-diazepine dihydrochloride. […] This hygroscopicity makes it difficult to quantify and weigh the dihydrochloride salt for the coupling reaction, and also can lead to the presence of undesired water in the coupling reaction (e.g. with DCI).

The target in data set [5] is T2, histamine H3 receptor (Rattus norvegicus, UniProt Q9QYN8).
T2 construct: from tissue; host or cells: rat cortex
The conditions noted are these: following oral administration to the rat; cited from earlier work.

The subject of a further data set is rats. The conditions noted are these: certain oral doses; cited from earlier work.
Where [6] appears, read: across the 0-90% relative humidity range at 25° C. under nitrogen.

Molecules are shown by their SMILES. pKi: −log10 of the molar value. Where a name gives a salt, the structure may show the parent alone. Read-outs that look alike come from different tables or passages of the source.

T1 sequence (Q9Y5N1 whole entry): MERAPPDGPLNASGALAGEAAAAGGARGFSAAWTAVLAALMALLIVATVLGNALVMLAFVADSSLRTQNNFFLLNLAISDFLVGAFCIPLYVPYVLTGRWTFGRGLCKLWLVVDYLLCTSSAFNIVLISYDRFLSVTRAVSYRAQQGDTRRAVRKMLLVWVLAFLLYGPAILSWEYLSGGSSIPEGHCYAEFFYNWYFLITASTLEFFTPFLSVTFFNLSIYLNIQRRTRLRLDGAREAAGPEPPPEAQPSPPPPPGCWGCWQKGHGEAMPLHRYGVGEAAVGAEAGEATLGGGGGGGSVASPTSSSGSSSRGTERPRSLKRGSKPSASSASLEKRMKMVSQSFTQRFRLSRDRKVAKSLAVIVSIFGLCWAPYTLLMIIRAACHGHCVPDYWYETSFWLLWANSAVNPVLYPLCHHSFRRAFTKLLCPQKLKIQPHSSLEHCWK
T2 sequence (Q9QYN8 whole entry): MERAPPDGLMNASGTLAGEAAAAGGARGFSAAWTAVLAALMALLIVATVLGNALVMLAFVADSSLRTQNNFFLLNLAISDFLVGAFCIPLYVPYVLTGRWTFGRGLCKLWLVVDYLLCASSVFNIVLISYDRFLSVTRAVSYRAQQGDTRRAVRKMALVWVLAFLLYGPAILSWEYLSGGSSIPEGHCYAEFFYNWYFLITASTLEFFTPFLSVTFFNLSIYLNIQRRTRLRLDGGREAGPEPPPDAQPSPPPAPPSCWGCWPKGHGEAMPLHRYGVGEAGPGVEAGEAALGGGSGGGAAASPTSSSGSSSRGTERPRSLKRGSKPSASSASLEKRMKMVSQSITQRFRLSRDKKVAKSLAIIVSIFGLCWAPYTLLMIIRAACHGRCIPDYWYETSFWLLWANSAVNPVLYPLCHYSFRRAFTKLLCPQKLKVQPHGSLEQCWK

Consider `CC(C)N1CCCN(C(=O)c2ccc(OC3CCOCC3)cc2)CC1.Cl` [Example 2 Part C, 1-Isopropyl-4-{[4-(tetrahydro-2H-pyran-4-yloxy)phenyl]carbonyl}hexahydro-1H-1,4-diazepine hydrochloride], for which, on histamine H3 receptor [1] (12 experiments, read-out: range of measured fpKi values), the pKi was 7.70 to 9.30. In addition, the Ki at histamine H3 receptor [1] (mean of 12 experiments, read-out: functional pKi (fpKi), H3 antagonism (converted)) is ~5.01 nM. Also, the “water sorption compared with crystalline Form 1 mono-maleate (GVS)” value in data set [2] (setting [6]) is listed as “higher quantities of water”. For the same molecule, the “water reversibly adsorbed and/or absorbed, and/or desorbed (GVS)” value in data set [2] (setting [6]) is listed as 14-15 % w/w. For the same molecule, the “weight gain relative to the minimum mass at 0% RH (GVS)” value was 7-8 % w/w in data set [2] (at about 30% RH, start of first sorption) and 14-15 % w/w in data set [2] (at about 90% RH, end of first sorption). The results for the “weight gain cf. minimum mass (GVS)” value in data set [2] (at ca. 30% RH on desorption from ca. 90% RH) and in data set [2] (at ca. 30% RH on re-sorption from 0% RH) were “ca. 14%” and “about 2%”, respectively.

On to `CC(C)N1CCCN(C(=O)c2ccc(OC3CCOCC3)cc2)CC1.O=C(O)/C=C\C(=O)O` [Example 4, 1-Isopropyl-4-{[4-(tetrahydro-2H-pyran-4-yloxy)phenyl]carbonyl}hexahydro-1H-1,4-diazepine mono-maleate salt (crystalline Form 1)], for which the “water content (Karl Fischer)” value in data set [3] was “less than 0.1 % w/w”.

Turning to `S=C(NC1CCCCC1)N1CCC(c2cnc[nH]2)CC1` [thioperamide], the “cognitive effect in rodent models” value in the data set on rodent is “cognitive enhancing properties”.

Take `O=C(c1ccc(OCCCc2cnc[nH]2)cc1)C1CC1` [ciproxifan]: in the data set on rodent, the “cognitive effect in rodent models” value is “cognitive enhancing properties”.

For `NC(=NCc1ccc(Cl)cc1)SCCCc1cnc[nH]1` [clobenpropit], the “cognitive effect in rodent models” value in the data set with rodent is reported as “cognitive enhancing properties”.

With `CC(C)N1CCCNCC1` [Intermediate 3, 1-Isopropyl-hexahydro-1H-1,4-diazepine bis-trifluoroacetate salt], in data set [4], the “stability of the solid” value is listed as “long-term stability” and the “hygroscopicity of the solid” value is recorded as “substantially non-hygroscopic”.

In the case of `CC(C)N1CCCN(C(=O)c2ccc(OC3CCOCC3)cc2)CC1` [Example 2 Part A, 1-Isopropyl-4-{[4-(tetrahydro-2H-pyran-4-yloxy)phenyl]carbonyl}hexahydro-1H-1,4-diazepine], the “water reversibly adsorbed and/or absorbed, and/or desorbed (GVS)” value in data set [2] (setting [6]) was 0.4-0.5 % w/w.

`CC(C)(C)CCC#C[C@@H]1C[C@H]1c1c[nH]cn1` [GT-2331]: the “cognitive effect in rodent models” value in the data set on rodent is “cognitive enhancing properties”.

In the case of `CC(C)N1CCCNCC1.Cl.Cl` [Intermediate 2, 1-Isopropyl-hexahydro-1H-1,4-diazepine dihydrochloride], in data set [4], the “hygroscopicity of the solid” value was “very hygroscopic”.

For `CNC(=O)c1ccc(Oc2ccc3c(c2)CCN(C2CCC2)CC3)nc1` [GSK189254], the “ex vivo binding in the rat cortex” value at histamine H3 receptor [5] is “inhibited”. Besides, the “performance in cognition paradigms” value in the data set with rats is reported as “improved performance”.

Values taken from patent US20110190274A1, “SALT OF, AND PROCESSES FOR THE PREPARATION OF, 1-ISOPROPYL-4-HEXAHYDRO-1H-1,4-DIAZEPINE” (GLAXO GROUP LIMITED, priority 2008, published 2011).
